{"source": "patent US8637528B2", "about": "“Use of PDE7 inhibitors for the treatment of movement disorders” (Omeros Corporation, priority 2007, dated 2014)", "key": {"Dopamine D5 receptor": {"molecular_target": "Dopamine D5 receptor (Homo sapiens (Human), UniProt P21918)", "sequence (P21918 whole entry)": "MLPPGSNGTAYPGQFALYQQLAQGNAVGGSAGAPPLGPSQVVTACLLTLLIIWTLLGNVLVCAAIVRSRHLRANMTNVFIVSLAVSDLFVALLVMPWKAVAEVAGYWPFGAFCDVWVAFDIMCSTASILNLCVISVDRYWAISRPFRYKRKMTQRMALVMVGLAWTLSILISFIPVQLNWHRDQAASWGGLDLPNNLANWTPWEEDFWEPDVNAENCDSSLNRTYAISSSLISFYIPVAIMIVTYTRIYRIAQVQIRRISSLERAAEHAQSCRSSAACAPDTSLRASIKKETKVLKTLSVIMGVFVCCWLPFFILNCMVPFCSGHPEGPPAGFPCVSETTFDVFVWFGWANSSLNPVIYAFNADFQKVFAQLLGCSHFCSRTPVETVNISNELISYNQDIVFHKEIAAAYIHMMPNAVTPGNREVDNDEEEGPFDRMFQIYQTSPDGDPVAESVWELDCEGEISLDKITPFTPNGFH", "test": "Dopamine D5 radioligand binding assay", "conditions": "10.0 μM"}, "Dopamine D2L receptor": {"molecular_target": "Dopamine D2L receptor (Homo sapiens (Human), UniProt P14416)", "sequence (P14416 whole entry)": "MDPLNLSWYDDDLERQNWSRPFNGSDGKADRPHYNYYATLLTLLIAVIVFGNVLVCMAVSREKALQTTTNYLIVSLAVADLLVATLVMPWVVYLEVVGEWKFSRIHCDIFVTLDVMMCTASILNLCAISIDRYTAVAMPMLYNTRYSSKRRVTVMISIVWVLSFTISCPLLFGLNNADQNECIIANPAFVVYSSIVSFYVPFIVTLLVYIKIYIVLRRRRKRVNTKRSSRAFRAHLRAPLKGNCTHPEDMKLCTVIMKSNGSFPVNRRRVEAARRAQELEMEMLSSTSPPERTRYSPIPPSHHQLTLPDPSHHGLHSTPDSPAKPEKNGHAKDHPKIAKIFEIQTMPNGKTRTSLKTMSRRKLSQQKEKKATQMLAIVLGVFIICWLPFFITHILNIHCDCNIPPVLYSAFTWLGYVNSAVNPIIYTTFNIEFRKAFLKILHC", "test": "Dopamine D2L radioligand binding assay", "conditions": "10.0 μM"}, "PDE7A": {"molecular_target": "PDE7A (Homo sapiens (Human), UniProt Q13946)", "sequence (Q13946 whole entry, species assumed)": "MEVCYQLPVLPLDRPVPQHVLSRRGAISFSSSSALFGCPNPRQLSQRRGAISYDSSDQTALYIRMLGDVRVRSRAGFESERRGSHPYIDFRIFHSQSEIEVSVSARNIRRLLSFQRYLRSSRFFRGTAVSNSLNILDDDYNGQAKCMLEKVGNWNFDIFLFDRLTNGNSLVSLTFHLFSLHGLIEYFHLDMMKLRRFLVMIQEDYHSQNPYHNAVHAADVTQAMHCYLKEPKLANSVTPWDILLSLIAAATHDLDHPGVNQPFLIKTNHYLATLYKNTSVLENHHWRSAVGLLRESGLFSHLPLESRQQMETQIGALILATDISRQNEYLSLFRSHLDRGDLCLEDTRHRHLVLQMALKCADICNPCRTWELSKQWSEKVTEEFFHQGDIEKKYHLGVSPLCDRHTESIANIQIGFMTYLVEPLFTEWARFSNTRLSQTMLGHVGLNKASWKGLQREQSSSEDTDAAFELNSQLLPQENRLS", "test": "initial PDE7A inhibition assay, different assay methodology", "format": "biochemical", "conditions": "read-out: PDE7A IC50 in the initial assay work"}, "Adenosine A2A receptor": {"molecular_target": "Adenosine A2A receptor (Homo sapiens (Human), UniProt P29274)", "sequence (P29274 whole entry)": "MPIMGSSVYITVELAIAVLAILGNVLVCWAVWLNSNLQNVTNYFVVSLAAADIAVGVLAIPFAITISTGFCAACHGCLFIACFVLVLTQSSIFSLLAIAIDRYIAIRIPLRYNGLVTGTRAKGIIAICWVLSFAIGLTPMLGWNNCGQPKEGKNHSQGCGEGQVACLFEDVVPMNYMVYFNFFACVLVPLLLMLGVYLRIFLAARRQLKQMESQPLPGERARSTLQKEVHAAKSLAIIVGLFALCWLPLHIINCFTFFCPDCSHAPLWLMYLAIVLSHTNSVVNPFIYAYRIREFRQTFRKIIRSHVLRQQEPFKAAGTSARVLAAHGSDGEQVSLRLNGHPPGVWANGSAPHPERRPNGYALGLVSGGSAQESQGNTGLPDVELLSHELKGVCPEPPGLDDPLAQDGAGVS", "test": "Adenosine A2A receptor radioligand binding assay", "experimental": "An Adenosine A2A receptor radioligand binding assay was carried out as described in Varani, K., et al., Br. J. Pharmacol. 117:1693-1701, 1996, with the following modifications. Human recombinant A2A receptor was expressed in HEK-293 cells. The ligand used in the assay was 0.05 μM [^3H]CGS-21680. The non-specific ligand was 50 μM NECA. The vehicle control was 1% DMSO. Compound OM69 was tested at 10 μM in incubation buffer (50 mM Tris-HCL, pH 7.4, 10 mM MgCl2, 1 mM EDTA, 2 U/mL Adenosine Deaminase). The reaction was incubated for 90 minutes at 25° C. Radioligand binding was quantitated. […]"}, "[1]": {"molecular_target": "Dopamine Transporter (DAT) (Homo sapiens (Human), UniProt Q01959)", "test": "Dopamine Transporter (DAT) radioligand binding assay", "conditions": "10.0 μM"}, "Dopamine D1 receptor": {"molecular_target": "Dopamine D1 receptor (Homo sapiens (Human), UniProt P21728)", "sequence (P21728 whole entry)": "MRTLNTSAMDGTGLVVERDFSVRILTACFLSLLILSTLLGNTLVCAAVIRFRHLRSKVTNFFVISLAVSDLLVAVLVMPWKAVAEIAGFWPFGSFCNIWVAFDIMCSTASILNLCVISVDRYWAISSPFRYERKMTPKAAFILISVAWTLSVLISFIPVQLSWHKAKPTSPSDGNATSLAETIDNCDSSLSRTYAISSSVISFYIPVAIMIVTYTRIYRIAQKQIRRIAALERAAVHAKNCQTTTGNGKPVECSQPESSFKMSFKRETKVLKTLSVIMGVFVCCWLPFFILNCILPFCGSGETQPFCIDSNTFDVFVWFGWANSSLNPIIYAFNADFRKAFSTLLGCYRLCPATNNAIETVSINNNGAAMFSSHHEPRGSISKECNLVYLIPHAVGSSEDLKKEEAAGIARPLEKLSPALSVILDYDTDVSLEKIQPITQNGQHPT", "test": "Dopamine D1 radioligand binding assay", "conditions": "10.0 μM"}, "Dopamine D3 receptor": {"molecular_target": "Dopamine D3 receptor (Homo sapiens (Human), UniProt P35462)", "sequence (P35462 whole entry)": "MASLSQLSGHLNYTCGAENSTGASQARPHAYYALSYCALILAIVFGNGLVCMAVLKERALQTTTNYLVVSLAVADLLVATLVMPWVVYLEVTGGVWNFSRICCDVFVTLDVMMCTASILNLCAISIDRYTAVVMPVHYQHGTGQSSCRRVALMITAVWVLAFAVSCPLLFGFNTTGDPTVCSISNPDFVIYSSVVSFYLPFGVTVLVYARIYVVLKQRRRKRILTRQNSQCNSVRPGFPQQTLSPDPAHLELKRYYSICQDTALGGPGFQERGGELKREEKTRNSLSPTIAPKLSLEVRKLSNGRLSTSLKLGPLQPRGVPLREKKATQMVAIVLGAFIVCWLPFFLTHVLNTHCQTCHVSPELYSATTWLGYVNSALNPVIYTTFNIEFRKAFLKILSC", "test": "Dopamine D3 radioligand binding assay", "conditions": "10.0 μM"}, "PDE7B": {"molecular_target": "PDE7B (Homo sapiens (Human), UniProt Q9NP56)", "sequence (Q9NP56 whole entry, species assumed)": "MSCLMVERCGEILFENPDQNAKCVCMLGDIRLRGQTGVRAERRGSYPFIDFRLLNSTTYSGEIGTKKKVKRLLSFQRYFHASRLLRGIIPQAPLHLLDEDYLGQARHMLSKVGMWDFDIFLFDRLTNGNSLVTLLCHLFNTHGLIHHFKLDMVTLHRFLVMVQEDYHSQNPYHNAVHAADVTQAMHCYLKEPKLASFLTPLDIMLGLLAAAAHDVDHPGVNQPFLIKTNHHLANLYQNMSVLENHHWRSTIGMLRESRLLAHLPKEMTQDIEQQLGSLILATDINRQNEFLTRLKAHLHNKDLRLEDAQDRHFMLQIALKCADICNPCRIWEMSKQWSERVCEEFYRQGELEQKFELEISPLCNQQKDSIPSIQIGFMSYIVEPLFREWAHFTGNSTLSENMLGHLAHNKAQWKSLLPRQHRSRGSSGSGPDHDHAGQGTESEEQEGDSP", "test": "initial PDE7B inhibition assay, different assay methodology", "format": "biochemical", "conditions": "reliability questioned"}, "Monoamine Oxidase MAO-B": {"molecular_target": "Monoamine Oxidase MAO-B (Homo sapiens (Human), UniProt P27338)", "sequence (P27338 whole entry, looked up)": "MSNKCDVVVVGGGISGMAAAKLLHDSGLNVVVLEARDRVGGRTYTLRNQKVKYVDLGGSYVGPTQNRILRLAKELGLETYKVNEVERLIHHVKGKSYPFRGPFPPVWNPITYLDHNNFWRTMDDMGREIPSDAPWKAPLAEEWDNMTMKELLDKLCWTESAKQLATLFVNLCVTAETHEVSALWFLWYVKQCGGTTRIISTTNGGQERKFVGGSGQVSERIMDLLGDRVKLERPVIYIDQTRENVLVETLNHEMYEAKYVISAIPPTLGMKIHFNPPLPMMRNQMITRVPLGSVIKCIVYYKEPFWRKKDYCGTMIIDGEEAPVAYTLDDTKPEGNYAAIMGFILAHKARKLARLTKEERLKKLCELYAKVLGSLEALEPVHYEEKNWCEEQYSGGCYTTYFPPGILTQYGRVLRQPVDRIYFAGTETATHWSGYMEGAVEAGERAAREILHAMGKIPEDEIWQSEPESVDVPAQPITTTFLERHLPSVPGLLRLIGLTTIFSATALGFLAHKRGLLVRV", "test": "Monoamine Oxidase MAO-B enzyme assay", "format": "biochemical"}, "[2]": {"molecular_target": "Catechol-O-Methyltransferase (COMT) (Sus scrofa, UniProt D3K5L3)", "sequence (D3K5L3 1-270)": "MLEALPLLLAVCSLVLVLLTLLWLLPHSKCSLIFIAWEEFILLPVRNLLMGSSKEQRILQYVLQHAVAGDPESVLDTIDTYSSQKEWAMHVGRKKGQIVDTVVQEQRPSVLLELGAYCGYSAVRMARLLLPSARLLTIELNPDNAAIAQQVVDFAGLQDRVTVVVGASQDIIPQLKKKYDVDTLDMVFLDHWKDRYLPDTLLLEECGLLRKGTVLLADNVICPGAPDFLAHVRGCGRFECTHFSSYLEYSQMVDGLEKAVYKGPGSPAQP", "test": "biochemical", "format": "biochemical, pig", "conditions": "10.0 μM"}, "Tyrosine Hydroxylase": {"molecular_target": "Tyrosine Hydroxylase (Rattus norvegicus (Rat), UniProt P04177)", "sequence (P04177 whole entry)": "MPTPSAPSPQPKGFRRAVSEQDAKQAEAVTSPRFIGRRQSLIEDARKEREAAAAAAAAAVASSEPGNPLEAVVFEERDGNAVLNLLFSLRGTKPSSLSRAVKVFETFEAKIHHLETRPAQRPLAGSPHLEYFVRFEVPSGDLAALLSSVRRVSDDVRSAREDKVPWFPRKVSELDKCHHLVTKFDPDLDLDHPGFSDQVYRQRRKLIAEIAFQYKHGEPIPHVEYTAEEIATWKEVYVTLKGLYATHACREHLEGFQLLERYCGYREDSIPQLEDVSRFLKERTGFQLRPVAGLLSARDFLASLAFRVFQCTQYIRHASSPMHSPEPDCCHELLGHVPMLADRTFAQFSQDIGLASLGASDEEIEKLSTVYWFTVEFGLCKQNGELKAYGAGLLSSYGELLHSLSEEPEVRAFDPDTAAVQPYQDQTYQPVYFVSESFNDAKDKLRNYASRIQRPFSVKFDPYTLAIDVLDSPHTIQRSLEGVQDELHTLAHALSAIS", "test": "Tyrosine Hydroxylase enzyme assay", "format": "biochemical", "conditions": "10.0 μM", "experimental": "Tyrosine Hydroxylase was assayed as described in Roskoski, R., Jr., et al., J. Biochem 218:363-370 (1993) with the following modifications. Tyrosine Hydroxylase was isolated from Wistar rat brain. The substrate was 100 μM L-[3,5-^3H]Tyrosine+L-Tyrosine. The vehicle control was 1% DMSO. Compound OM69 was tested at 10 μM in incubation buffer (125 mM MES, pH 6.0, 0.5 mg/ml Catalase, 12.5 mM DTT, 0.5 mM (6R)-5,6,7,8-Tetrahydrobiopterin). The reaction was pre-incubated for 15 minutes at 37° C. Tyrosine Hydroxylase enzyme was added, and the reaction was incubated for 20 minutes at 37° C. [^3H]-H20 was quantitated."}}, "data": [{"smiles": "COc1cc(N)ccc1-c1cc2c(c(=O)[nH]1)C(C1CCCCC1)N=[N+]2C", "note": "(stereo not shown) [OM69]", "values": [{"measurement": "percent inhibition of ligand binding to Dopamine D5", "setting": "Dopamine D5 receptor", "result": 4.0, "unit": "%"}, {"measurement": "percent inhibition of ligand binding to Dopamine D2L", "setting": "Dopamine D2L receptor", "result": 4.0, "unit": "%"}, {"measurement": "IC50", "setting": "PDE7A", "result": 3.5, "unit": "nM"}, {"measurement": "percent inhibition of ligand binding to Adenosine A2A Receptor", "setting": "Adenosine A2A receptor; 10.0 μM", "result": 41, "unit": "%"}, {"measurement": "percent occupation of A2A receptors", "setting": "Adenosine A2A receptor; brain level 8.5 to 17 nM (dose 0.1 mg/kg), using IC50 of 10 μM", "result": "about 0.17%"}, {"measurement": "percent inhibition of ligand binding to Dopamine Transporter (DAT)", "setting": "[1]", "result": 18.0, "unit": "%"}, {"measurement": "percent inhibition of ligand binding to Dopamine D1", "setting": "Dopamine D1 receptor", "result": "−5.0", "unit": "%"}, {"measurement": "percent inhibition of ligand binding to Dopamine D3", "setting": "Dopamine D3 receptor", "result": "−13.0", "unit": "%"}, {"measurement": "IC50", "setting": "PDE7B", "result": 96.9, "unit": "nM"}, {"measurement": "percent inhibition of MAO-B enzymatic activity", "setting": "Monoamine Oxidase MAO-B; Exp #1, 10.0 μM", "result": 49.0, "unit": "%"}, {"measurement": "percent inhibition of MAO-B enzymatic activity", "setting": "Monoamine Oxidase MAO-B; Exp #2, 1.0 μM", "result": 27, "unit": "%"}, {"measurement": "percent inhibition of MAO-B enzymatic activity", "setting": "Monoamine Oxidase MAO-B; Exp #2, 10.0 μM", "result": 67.0, "unit": "%"}, {"measurement": "IC50", "setting": "Monoamine Oxidase MAO-B; estimated from 27% inhibition at 1 μM, read-out: MAO-B IC50 indicated by the percentage inhibition", "result": "~2700", "unit": "nM"}, {"measurement": "inhibition of MAO-B at brain concentration", "setting": "Monoamine Oxidase MAO-B; if present in the brain at 17 nM", "result": "less than 0.7%"}, {"measurement": "percent inhibition of COMT enzymatic activity", "setting": "[2]", "result": 19.0, "unit": "%"}, {"measurement": "percent inhibition of Tyrosine Hydroxylase enzymatic activity", "setting": "Tyrosine Hydroxylase", "result": 4.0, "unit": "%"}]}]}
